Where “and” joins values, the source holds several entries; their conditions need not be identical. Identical values can stand only once.
Legend:
Soy = assay: Tolerance rates for soybean (injury score 0-9)
Corn = assay: Tolerance rates for corn (injury score 0-9)

With `CCOc1cc(Oc2ccc(C(F)(F)F)cc2Cl)ccc1[N+](=O)[O-]` [Oxyfluorfen] the injury score (Soy; Oxyfluorfen 600 g ai/ha, amino acid substitution L397D_F420V Event A, SEQ ID NO 2) was 4 and 5 and 6 and 9, the injury score (Soy; Oxyfluorfen 600 g ai/ha, amino acid substitution L397D_F420V Event B, SEQ ID NO 2) was 6 and 4 and 8 and 5 and the injury score (Soy; Oxyfluorfen 600 g ai/ha, amino acid substitution none, SEQ ID NO none) was 8 and 7 and 9. The injury score (Soy; Oxyfluorfen 1200 g ai/ha, amino acid substitution L397D_F420V Event A, SEQ ID NO 2) was 5 and 4 and 3, the injury score (Soy; Oxyfluorfen 1200 g ai/ha, amino acid substitution L397D_F420V Event B, SEQ ID NO 2) was 5 and 4 and 6 and the injury score (Soy; Oxyfluorfen 1200 g ai/ha, amino acid substitution none, SEQ ID NO none) was 9 and 8.

With `C#CCN1C(=O)COc2cc(F)c(N3C(=O)C4=C(CCCC4)C3=O)cc21` [flumioxazin] the injury score (Soy; Flumioxazin 150 g ai/ha, amino acid substitution L397D_F420V Event A, SEQ ID NO 2) was 9 and 6 and 5 and 4, the injury score (Soy; Flumioxazin 150 g ai/ha, amino acid substitution L397D_F420V Event B, SEQ ID NO 2) was 5 and 6 and 4 and the injury score (Soy; Flumioxazin 150 g ai/ha, amino acid substitution none, SEQ ID NO none) was 9.

With `CS(=O)(=O)NC(=O)c1cc(Oc2ccc(C(F)(F)F)cc2Cl)ccc1[N+](=O)[O-]` [fomesafen] the injury score (Soy; Fomesafen 600 g ai/ha, amino acid substitution L397D_F420V Event A, SEQ ID NO 2) was 1 and 2 and 0 and 4, the injury score (Soy; Fomesafen 600 g ai/ha, amino acid substitution L397D_F420V Event B, SEQ ID NO 2) was 2 and 4 and 1 and 3 and the injury score (Soy; Fomesafen 600 g ai/ha, amino acid substitution none, SEQ ID NO none) was 5 and 4.

`CC(C)N(C)S(=O)(=O)NC(=O)c1cc(-n2c(=O)cc(C(F)(F)F)n(C)c2=O)c(F)cc1Cl` [saflufenacil] was tested, and the “Tolerance rate (injury score), Saflufenacil 25 g ai/ha” value (Corn; Corn events with PPO L397D, F420M (SEQ ID NO 2), Saflufenacil 25 g ai/ha) was 2 and 3 and 1, the “Tolerance rate (injury score), Saflufenacil 50 g ai/ha” value (Corn; Corn events with PPO L397D, F420M (SEQ ID NO 2), Saflufenacil 50 g ai/ha) was 1 and 2 and 3 and 0 and the “Tolerance rate (injury score), Saflufenacil 100 g ai/ha” value (Corn; Corn events with PPO L397D, F420M (SEQ ID NO 2), Saflufenacil 100 g ai/ha) was 7 and 3. The “Tolerance rate (injury score), Saflufenacil 100 g ai/ha” value (Corn; Corn events with PPO L397E, F420M (SEQ ID NO 2), Saflufenacil 100 g ai/ha) was 1 and 0 and 7, the “Tolerance rate (injury score), Saflufenacil 100 g ai/ha” value (Corn; Corn events with PPO L397Q (SEQ ID NO 2), Saflufenacil 100 g ai/ha) was 4 and 5 and the “Tolerance rate (injury score), Saflufenacil 100 g ai/ha” value (Corn; Corn events with PPO L397Q, F420M (SEQ ID NO 2), Saflufenacil 100 g ai/ha) was 0 and 1. For the same molecule, the “Tolerance rate (injury score), Saflufenacil 100 g ai/ha” value (Corn; Corn events with PPO L397Q, F420V (SEQ ID NO 2), Saflufenacil 100 g ai/ha) was 4 and 2 and 3 and 7 and 5, the “Tolerance rate (injury score), Saflufenacil 100 g ai/ha” value (Corn; Corn events, amino acid substitution not given, Saflufenacil 100 g ai/ha) was 1 and the “Tolerance rate (injury score), corn” value (Corn; Saflufenacil 25 g ai/ha, corn events 37-53, amino acid substitution not given) was 6 and 7 and 5 and 8 and 4. The “Tolerance rate (injury score), corn” value (Corn; Saflufenacil 25 g ai/ha, corn events with PPO substitution F420L (SEQ ID NO 2)) was 6 and 7, the “Tolerance rate (injury score), corn” value (Corn; Saflufenacil 25 g ai/ha, corn events with PPO substitution F420M (SEQ ID NO 2)) was 4 and 6 and 8 and 7 and 5 and the “Tolerance rate (injury score), corn” value (Corn; Saflufenacil 25 g ai/ha, corn events with PPO substitution L397D, F420V (SEQ ID NO 2)) was 6 and 5 and 7. The “Tolerance rate (injury score), corn” value (Corn; Saflufenacil 25 g ai/ha, corn events with PPO substitution L397E, F420V (SEQ ID NO 2)) was 1 and 0 and 3, the “Tolerance rate (injury score), corn” value (Corn; Saflufenacil 50 g ai/ha, corn events 54-81, amino acid substitution not given) was 6 and 7 and 4 and 5 and the “Tolerance rate (injury score), corn” value (Corn; Saflufenacil 50 g ai/ha, corn events with PPO substitution F420L (SEQ ID NO 2)) was 7 and 8 and 6. For the same molecule, the “Tolerance rate (injury score), corn” value (Corn; Saflufenacil 50 g ai/ha, corn events with PPO substitution F420M (SEQ ID NO 2)) was 7 and 6 and 8, the “Tolerance rate (injury score), corn” value (Corn; Saflufenacil 50 g ai/ha, corn events with PPO substitution L397D, F420V (SEQ ID NO 2)) was 4 and 6 and 7 and the “Tolerance rate (injury score), corn” value (Corn; Saflufenacil 50 g ai/ha, corn events with PPO substitution L397E, F420V (SEQ ID NO 2)) was 1 and 0 and 2 and 3. For the same molecule, the “Tolerance rate (injury score), corn” value (Corn; Saflufenacil 100 g ai/ha, corn events with PPO substitution F420L (SEQ ID NO 2)) was 8 and 7 and 6, the “Tolerance rate (injury score), corn” value (Corn; Saflufenacil 100 g ai/ha, corn events with PPO substitution L397E, F420V (SEQ ID NO 2)) was 0 and 1 and 3 and 2 and the injury score (Soy; Soy, saflufenacil 12.5 g ai/ha, amino acid substitution F420L, SEQ ID NO 2) was 1 and 0 and 3. For the same molecule, the injury score (Soy; Soy, saflufenacil 12.5 g ai/ha, amino acid substitution L369D, F392V, SEQ ID NO 40) was 9 and 7 and 4 and 5 and 6, the injury score (Soy; Soy, saflufenacil 12.5 g ai/ha, amino acid substitution L397E, SEQ ID NO 2) was 5 and 4 and 0 and 3 and the injury score (Soy; Soy, saflufenacil 12.5 g ai/ha, amino acid substitution L397Q, SEQ ID NO 2) was 4. For the same molecule, the injury score (Soy; Soy, saflufenacil 12.5 g ai/ha, amino acid substitution none, SEQ ID NO 2) was 2 and 4 and 7 and 8 and 5, the injury score (Soy; Soy, saflufenacil 12.5 g ai/ha, amino acid substitution none, SEQ ID NO 40) was 9 and 3 and 4 and 8 and 7 and the injury score (Soy; Soy, saflufenacil 25 g ai/ha, amino acid substitution F420L, SEQ ID NO 2) was 9 and 0 and 2. The injury score (Soy; Soy, saflufenacil 25 g ai/ha, amino acid substitution L369D, F392V, SEQ ID NO 40) was 9 and 5 and 6 and 7 and 4, the injury score (Soy; Soy, saflufenacil 25 g ai/ha, amino acid substitution L397D, SEQ ID NO 2) was 7 and 2 and 9 and 5 and 3 and the injury score (Soy; Soy, saflufenacil 25 g ai/ha, amino acid substitution L397E, SEQ ID NO 2) was 3 and 6 and 4 and 5 and 1. The injury score (Soy; Soy, saflufenacil 25 g ai/ha, amino acid substitution L397Q, SEQ ID NO 2) was 3, the injury score (Soy; Soy, saflufenacil 25 g ai/ha, amino acid substitution none, SEQ ID NO 2) was 4 and 3 and 7 and 9 and 8 and the injury score (Soy; Soy, saflufenacil 25 g ai/ha, amino acid substitution none, SEQ ID NO 40) was 9 and 6. The injury score (Soy; Soy, saflufenacil 50 g ai/ha, amino acid substitution F420L, SEQ ID NO 2) was 9 and 0 and 2, the injury score (Soy; Soy, saflufenacil 50 g ai/ha, amino acid substitution L369D, F392V, SEQ ID NO 40) was 9 and 6 and 7 and 5 and the injury score (Soy; Soy, saflufenacil 50 g ai/ha, amino acid substitution L397D, SEQ ID NO 2) was 9 and 4 and 3 and 6 and 5. The injury score (Soy; Soy, saflufenacil 50 g ai/ha, amino acid substitution L397E, F420M, SEQ ID NO 2) was 1 and 0 and 2, the injury score (Soy; Soy, saflufenacil 50 g ai/ha, amino acid substitution L397E, SEQ ID NO 2) was 3 and 6 and 4 and 7 and the injury score (Soy; Soy, saflufenacil 50 g ai/ha, amino acid substitution L397Q, F420M, SEQ ID NO 2) was 0 and 6 and 1 and 5 and 4. For the same molecule, the injury score (Soy; Soy, saflufenacil 50 g ai/ha, amino acid substitution L397Q, F420V, SEQ ID NO 2) was 0 and 7, the injury score (Soy; Soy, saflufenacil 50 g ai/ha, amino acid substitution L397Q, SEQ ID NO 2) was 8 and the injury score (Soy; Soy, saflufenacil 50 g ai/ha, amino acid substitution none, SEQ ID NO 2) was 7 and 8 and 9 and 6. The injury score (Soy; Soy, saflufenacil 50 g ai/ha, amino acid substitution none, SEQ ID NO 40) was 9 and 8, the injury score (Soy; Soy, saflufenacil 100 g ai/ha, amino acid substitution F420L, SEQ ID NO 2) was 9 and the injury score (Soy; Soy, saflufenacil 100 g ai/ha, amino acid substitution L369D, F392V, SEQ ID NO 40) was 9 and 6. The injury score (Soy; Soy, saflufenacil 100 g ai/ha, amino acid substitution L397D, SEQ ID NO 2) was 9 and 4 and 6 and 5, the injury score (Soy; Soy, saflufenacil 100 g ai/ha, amino acid substitution L397E, F420M, SEQ ID NO 2) was 2 and 0 and 1 and the injury score (Soy; Soy, saflufenacil 100 g ai/ha, amino acid substitution L397Q, F420M, SEQ ID NO 2) was 0 and 7 and 3 and 6 and 1 and 2. For the same molecule, the injury score (Soy; Soy, saflufenacil 100 g ai/ha, amino acid substitution L397Q, F420V, SEQ ID NO 2) was 0 and 7.

In the case of `Cc1nn(-c2cc(NS(C)(=O)=O)c(Cl)cc2Cl)c(=O)n1C(F)F` [sulfentrazone], the injury score (Soy; Sulfentrazone 350 g ai/ha, amino acid substitution L397D_F420V Event A, SEQ ID NO 2) is reported as 9 and 6 and 3 and 5, the injury score (Soy; Sulfentrazone 350 g ai/ha, amino acid substitution L397D_F420V Event B, SEQ ID NO 2) is reported as 4 and 5 and 6 and the injury score (Soy; Sulfentrazone 350 g ai/ha, amino acid substitution none, SEQ ID NO none) is reported as 9 and 7 and 8. For the same molecule, the injury score (Soy; Sulfentrazone 700 g ai/ha, amino acid substitution L397D_F420V Event A, SEQ ID NO 2) was 2 and 3 and 7 and 1 and 4 and 6, the injury score (Soy; Sulfentrazone 700 g ai/ha, amino acid substitution L397D_F420V Event B, SEQ ID NO 2) was 4 and 5 and 6 and the injury score (Soy; Sulfentrazone 700 g ai/ha, amino acid substitution none, SEQ ID NO none) was 9.

Reference: patent publication US12686873B2, “Plants having increased tolerance to herbicides” (priority 2012, dated 2026)
